{
  "source": "ChEMBL document CHEMBL5113460",
  "about": "“Discovery of dual inhibitors of topoisomerase I and Cyclooxygenase-2 for colon cancer therapy” (Eur J Med Chem, 2022)",
  "key": {"[1]": {"tested_on": "RKO", "experiment": "Inhibition of NF-kappaB signalling pathway in human RKO cells assessed as decrease in phosphorylated IkappaB level at 3 to 9 uM incubated for 24 hrs by Western blot analysis", "type": "cell-based", "settings": "dose 3-9 µM"}, "[2]": {"tested_on": "RKO", "experiment": "Induction of apoptosis in human RKO cells assessed as viable cells at 9 uM incubated for 24 hr by Annexin-V-FITC/PI staining based flow cytometry (Rvb= 87.9%)", "type": "functional", "settings": "read-out: Activity"}, "[3]": {"tested_on": "RKO", "experiment": "Induction of apoptosis in human RKO cells assessed as increase in Bax protein level at 3 to 9 uM incubated for 24 hrs by western blot analysis", "type": "functional, cell-based", "settings": "dose 3-9 µM"}, "[4]": {"tested_on": "RKO", "experiment": "Induction of apoptosis in human RKO cells assessed as decrease in Bcl-2 protein level at 3 to 9 uM incubated for 24 hrs by western blot analysis", "type": "functional, cell-based", "settings": "dose 3-9 µM"}, "[5]": {"experiment": "AUC (0-t) in Sprague-Dawley rat at 30 mg/kg, po and measured upto 12 hrs by LC-MS analysis", "type": "ADME, organism-based", "set-up": "dose 30 mg/kg, time < 12 hrs, route po", "settings": "in vivo"}, "[6]": {"tested_on": "RKO", "experiment": "Induction of apoptosis in human RKO cells assessed as early apoptotic cells at 9 uM incubated for 24 hr by Annexin-V-FITC/PI staining based flow cytometry (Rvb= 7.27%)", "type": "functional"}, "[7]": {"experiment": "Half life in Sprague-Dawley rat at 100 mg/kg, po and measured upto 24 hrs by LC-MS analysis", "type": "ADME, organism-based", "settings": "in vivo"}, "[8]": {"tested_on": "HT-29", "experiment": "Induction of apoptosis in human HT-29 cells assessed as increase in cytochrome c protein level at 2 to 8 uM incubated for 24 hrs by western blot analysis", "type": "functional, cell-based", "settings": "dose 2-8 µM"}, "[9]": {"tested_on": "HT-29", "experiment": "Induction of apoptosis in human HT-29 cells assessed as viable cells at 2 uM incubated for 24 hr by Annexin-V-FITC/PI staining based flow cytometry (Rvb= 83.5%)", "type": "functional", "settings": "read-out: Activity"}, "[10]": {"tested_on": "HT-29", "experiment": "Antitumor activity against human HT-29 cells xenografted in BALB/c mouse assessed as reduction of tumor weight at 15 mg/kg, ip bid and measured after 14 days", "type": "functional, organism-based", "settings": "time 14.0 day"}, "[11]": {"tested_on": "RKO", "experiment": "Induction of apoptosis in human RKO cells assessed as reduction in mitochondrial membrane potential at 3 to 9 uM by TMRE staining based flow cytometry", "type": "functional, cell-based", "settings": "dose 3-9 µM"}, "[12]": {"tested_on": "RKO", "experiment": "Antiproliferative activity against human RKO cells assessed as inhibition of cell colonies at 0.37 to 1.5 uM incubated for 7 days by crystal violet staining based microscopic analysis", "type": "functional", "settings": "dose 0.37-1.5 µM, time 7.0 day"}, "[13]": {"tested_on": "HT-29", "experiment": "Induction of apoptosis in human HT-29 cells assessed as viable cells at 8 uM incubated for 24 hr by Annexin-V-FITC/PI staining based flow cytometry (Rvb= 83.5%)", "type": "functional", "settings": "read-out: Activity"}, "[14]": {"tested_on": "HT-29", "experiment": "Antitumor activity against human HT-29 cells xenografted in BALB/c mouse assessed as inhibition of tumor microvessel density by measuring CD31-index at 30 mg/kg, ip bid for 14 days by immunohistochemical analysis", "type": "functional", "settings": "time 14 day"}, "[15]": {"tested_on": "RKO", "experiment": "Antiproliferative activity against human RKO cells assessed as inhibition of cell proliferation incubated for 24 to 72 hrs by MTT assay", "type": "functional, cell-based", "settings": "time 24-72 hrs, DDE = dose-dependent effect"}, "[16]": {"molecular_target": "T1, DNA topoisomerase 1 (Homo sapiens) (UniProt P11387)", "T1 sequence (whole entry)": "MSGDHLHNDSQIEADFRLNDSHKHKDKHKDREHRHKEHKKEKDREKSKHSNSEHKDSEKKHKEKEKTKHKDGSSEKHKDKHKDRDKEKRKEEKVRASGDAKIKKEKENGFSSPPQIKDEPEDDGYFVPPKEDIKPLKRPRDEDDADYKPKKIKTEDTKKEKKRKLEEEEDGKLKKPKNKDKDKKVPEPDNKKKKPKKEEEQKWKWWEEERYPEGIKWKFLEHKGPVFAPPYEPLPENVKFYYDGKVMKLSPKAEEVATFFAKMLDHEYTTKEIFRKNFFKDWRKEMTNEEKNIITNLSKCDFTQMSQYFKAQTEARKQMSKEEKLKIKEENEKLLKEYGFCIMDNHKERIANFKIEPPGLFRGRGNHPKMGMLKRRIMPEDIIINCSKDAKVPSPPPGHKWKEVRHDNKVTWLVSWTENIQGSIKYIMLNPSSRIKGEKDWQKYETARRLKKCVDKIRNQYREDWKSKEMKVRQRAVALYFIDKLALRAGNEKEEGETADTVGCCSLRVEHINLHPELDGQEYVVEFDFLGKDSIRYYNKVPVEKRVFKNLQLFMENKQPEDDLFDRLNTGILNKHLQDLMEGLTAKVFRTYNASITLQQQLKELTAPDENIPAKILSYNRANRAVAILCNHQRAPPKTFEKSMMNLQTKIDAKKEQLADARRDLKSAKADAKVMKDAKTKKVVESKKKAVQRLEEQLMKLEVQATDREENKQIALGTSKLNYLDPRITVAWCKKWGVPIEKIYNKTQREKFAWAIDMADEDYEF", "experiment": "Inhibition of topoisomerase 1 (unknown origin) assessed as relaxation of supercoiled plasmid pBR322 DNA at 10 uM incubated for 45 mins by ethidium bromide staining based agarose gel electrophoresis"}, "[17]": {"tested_on": "HT-29", "experiment": "Antitumor activity against human HT-29 cells xenografted in BALB/c mouse assessed as inhibition of tumor growth at 30 mg/kg, ip bid and measured after 14 days by vernier caliper method", "type": "functional", "settings": "HT-29, 336 h, time 14 day, read-out: TGI"}, "[18]": {"tested_on": "HT-29", "experiment": "Antitumor activity against human HT-29 cells xenografted in BALB/c mouse assessed as inhibition of tumor microvessel density by measuring CD31-index at 15 mg/kg, ip bid for 14 days by immunohistochemical analysis", "type": "functional", "settings": "time 14 day"}, "[19]": {"tested_on": "SW480", "experiment": "Antitumor activity against human SW480 cells assessed as inhibition of cell proliferation incubated for 72 hrs by MTT assay", "type": "functional, cell-based", "settings": "SW480, 72 h"}, "[20]": {"tested_on": "HT-29", "experiment": "Induction of apoptosis in human HT-29 cells assessed as early apoptotic cells at 4 uM incubated for 24 hr by Annexin-V-FITC/PI staining based flow cytometry (Rvb=6.25%)", "type": "functional"}, "[21]": {"tested_on": "RKO", "experiment": "Induction of apoptosis in human RKO cells assessed as viable cells at 3 uM incubated for 24 hr by Annexin-V-FITC/PI staining based flow cytometry (Rvb= 87.9%)", "type": "functional", "settings": "read-out: Activity"}, "[22]": {"experiment": "Half life in Sprague-Dawley rat at 30 mg/kg, po and measured upto 12 hrs by LC-MS analysis", "type": "ADME, organism-based", "settings": "in vivo"}, "[23]": {"tested_on": "HT-29", "experiment": "Induction of apoptosis in human HT-29 cells assessed as viable cells at 4 uM incubated for 24 hr by Annexin-V-FITC/PI staining based flow cytometry (Rvb= 83.5%)", "type": "functional", "settings": "read-out: Activity"}, "[24]": {"experiment": "Cmax in Sprague-Dawley rat at 100 mg/kg, po and measured upto 24 hrs by LC-MS analysis", "type": "ADME, organism-based", "set-up": "time < 24 hrs, dose 100 mg/kg, route po", "settings": "in vivo"}, "[25]": {"tested_on": "HT-29", "experiment": "Inhibition of NF-kappaB signalling pathway in human HT-29 cells assessed as decrease in phosphorylated IkappaB level at 2 to 8 uM incubated for 24 hrs by Western blot analysis", "type": "cell-based", "settings": "dose 2-8 µM"}, "[26]": {"tested_on": "RKO", "experiment": "Induction of apoptosis in human RKO cells assessed as late apoptotic cells at 6 uM incubated for 24 hr by Annexin-V-FITC/PI staining based flow cytometry (Rvb= 4.49%)", "type": "functional"}, "[27]": {"tested_on": "LoVo", "experiment": "Antitumor activity against human LoVo cells assessed as inhibition of cell proliferation incubated for 72 hrs by MTT assay", "type": "functional, cell-based"}, "[28]": {"experiment": "AUC (0-t) in Sprague-Dawley rat at 100 mg/kg, po and measured upto 24 hrs by LC-MS analysis", "type": "ADME, organism-based", "set-up": "dose 100 mg/kg, time < 24 hrs, route po", "settings": "in vivo"}},
  "note": "Active and inactive are the calls of the source. No cut-off for these calls is given here.",
  "data": [
    {"smiles": "Cc1c(Cl)cccc1Nc1ccccc1C(=O)Nc1ccc(N2CCNCC2)cc1", "values": [
      {"measurement": "inhibition", "setting": "[1]", "result": "Active"},
      {"measurement": "viability at 9 µM", "setting": "[2]", "result": 65.6, "unit": "%"},
      {"measurement": "Activity", "setting": "[3]", "result": "Active"},
      {"measurement": "Activity", "setting": "[4]", "result": "Active"},
      {"measurement": "AUC(0-t) at 12 h", "setting": "[5]", "result": 5410, "unit": "ng·h/mL"},
      {"measurement": "Activity", "setting": "[6]", "result": 22.7, "unit": "%"},
      {"measurement": "half-life", "setting": "[7]", "result": 8.87, "unit": "h"},
      {"measurement": "Activity", "setting": "[8]", "result": "Active"},
      {"measurement": "viability at 2 µM", "setting": "[9]", "result": 82.6, "unit": "%"},
      {"measurement": "Activity", "setting": "[10]", "result": "Active"},
      {"measurement": "Activity", "setting": "[11]", "result": "Active"},
      {"measurement": "Activity", "setting": "[12]", "result": "Active"},
      {"measurement": "viability at 8 µM", "setting": "[13]", "result": 68.9, "unit": "%"},
      {"measurement": "Inhibition_index", "setting": "[14]", "result": 6},
      {"measurement": "Activity", "setting": "[15]", "result": "Dde"},
      {"measurement": "inhibition", "setting": "[16]", "result": 69, "unit": "%"},
      {"measurement": "inhibition in vivo at 30 mg/kg", "setting": "[17]", "result": 57.9, "unit": "%"},
      {"measurement": "Inhibition_index", "setting": "[18]", "result": 10.67},
      {"measurement": "IC50", "setting": "[19]", "result": 7.36, "unit": "µM"},
      {"measurement": "Activity", "setting": "[20]", "result": 4.95, "unit": "%"},
      {"measurement": "viability at 3 µM", "setting": "[21]", "result": 88, "unit": "%"},
      {"measurement": "half-life", "setting": "[22]", "result": 4.27, "unit": "h"},
      {"measurement": "viability at 4 µM", "setting": "[23]", "result": 80, "unit": "%"},
      {"measurement": "Cmax", "setting": "[24]", "result": 2000, "unit": "ng/mL"},
      {"measurement": "inhibition", "setting": "[25]", "result": "Active"},
      {"measurement": "Activity", "setting": "[26]", "result": 6.88, "unit": "%"},
      {"measurement": "IC50", "setting": "[27]", "result": 4.89, "unit": "µM"},
      {"measurement": "AUC(0-t) at 24 h", "setting": "[28]", "result": 24800, "unit": "ng·h/mL"}
    ]}
  ]
}
